{"source": "patent US5965088A", "about": "“Method for providing rapid disinfection of contact lenses” (priority 1997, dated 1999)", "test_system": "Staphylococcus aureus (ATCC 6538)", "experiment": "Antimicrobial efficacy (stand-alone log reduction), S. aureus", "assay_type": "cell-based", "settings": "for log reduction at 4 ppm / log reduction at 1 ppm / log reduction at 2 ppm / log reduction at 3 ppm / log reduction at 5 ppm / log reduction at 4 µg/mL: Staphylococcus aureus; for log reduction at 4 µg/mL: 4.0 ppm alexidine in ReNu MPS", "method": "This Example illustrates the microbiocidal efficacy of solutions according to the present invention. The antimicrobial efficacy of each of various compositions for the chemical disinfection of contact lenses was evaluated. Microbial challenge inoculums were prepared using Pseudomonas aeruginosa (ATCC 9027), Staphylococcus aureus (ATCC 6538), Serratia marcescens (ATCC 13880), Candida albicans (ATCC 10231), and Fusarium solani (ATCC 36031). The test organisms were cultured on appropriate agar and the cultures were harvested using sterile DPBST (Dulbecco's Phosphate Buffered Saline plus 0.05% w/v polysorbate 80) or a suitable diluent and transferred to a suitable vessel. Spore suspensions were filtered through sterile glass wool to remove hyphal fragments. Serratia marcescens, as appropriate, was filtered (eg., through a 1.2 μ filter) to clarify the suspension. After harvesting, the suspension was centrifuged at no more than 5000× g for a maximum of 30 minutes at 20-25° C. The supernatant was poured off and resuspended in DPBST or other suitable diluent. The suspension was centrifuged a second time, and resuspended in DPBST or other suitable diluent. All challenge bacterial and fungal cell suspensions were adjusted with DPBST or other suitable diluent to 1×10^7 -10^8 cfu/mL. The appropriate cell concentration may be estimated by measuring the turbidity of the suspension, for example using a spectrophotometer at a preselected wavelength, for example 490 nm. One tube was prepared containing a minimum of 10 mL of test solution per challenge organism. Each tube of the solution to be tested was inoculated with a suspension of the test organism sufficient to provide a final count of 1.0×10^5 -10^6 cfu/mL, the volume of the inoculum not exceeding 1% of the sample volume. Dispersion of the inoculum was ensured by vortexing the sample for at least 15 seconds. The inoculated product was stored at 10-25° C. Aliquots in the amount of 1.0 mL were taken of the inoculated product for determination of viable counts after certain time periods of disinfection. The time points for the bacteria were 25, 50, 75, and 100% of the minimum disinfection time. Yeast and mold were tested at an additional timepoint of at least 400% of the minimum disinfection time. The suspension was mixed well by vortexing vigorously for at least 5 second. The 1.0 mL aliquots removed at the specified time intervals were subjected to a suitable series of decimal dilutions in validated neutralizing media. The suspensions were mixed vigorously and incubated for a suitable period of time to allow for neutralization of the microbial agent. The viable count of organisms was determined in appropriate dilutions by preparation of triplicate plates of trypticase soy (TSA) agar for bacteria and Sabouraud dextrose agar (SDA) for mold and yeast. The bacterial recovery plates were incubated at 30-35° C. for 2-4 days. The yeast was incubated at 20-30° C. for 2-4 days and mold recovery plates at 20-25° C. for 3-7 days. The average number of colony forming units was determined on countable plates. Countable plates refer to 30-300 cfu/plates for bacteria and yeast, and 8 to 80 cfu/plate for mold except when colonies are observed only for the 10^0 or 10^-1 dilution plates. The microbial reduction was then calculated at the specified time points. […] Following inoculation in a validated neutralizing broth and incubation for an appropriate period of time, the inoculum control must be between 1.0×10^5 -1.0×10^6 cfu/mL\nThe solutions were evaluated based on the performance requirement referred to as the \"Stand-Alone Procedure for Disinfecting Products\" (hereafter the \"stand-alone test\") and is based on the Disinfection Efficacy Testing for contact lens care products under the Draft Premarket Notification (510(k)) Guidance Document For Contact Lens Care Products dated Apr. 1, 1996, prepared by the U.S. Food and Drug Administration, Division of Ophthalmic Devices. […]", "note": "Where two headings read alike, the source gives them in different places.", "data": [{"smiles": "CCCCC(CC)CNC(=N)NC(=N)NCCCCCCNC(=N)NC(=N)NCC(CC)CCCC.Cl.Cl", "note": "(centres unmarked) [Alexidine.2HCl, 1,1 '-hexamethylenebis(5-(2-ethylhexyl)-biguanide) dihydrochloride]", "values": [{"measurement": "stand-alone test, 15 minute time point", "setting": "4.0 ppm, Example 6, 15 min", "result": "the 15 minute time point failed"}, {"measurement": "log reduction at 4 ppm", "setting": "ATCC6538, 2.5 min", "result": 2}, {"measurement": "log reduction at 4 ppm", "setting": "ATCC6538, 2.5 min, 4.0 ppm, aged 18 months, Exp. 1, 2.5 min, read-out: Log Reduction", "result": 2.2}, {"measurement": "log reduction at 4 ppm", "setting": "ATCC6538, 2.5 min, 4.0 ppm, aged 18 months, Exp. 2, 2.5 min, read-out: Log Reduction", "result": 1.6}, {"measurement": "log reduction at 1 ppm", "setting": "ATCC6538, 5 min, 1.0 ppm, read-out: Log Reduction at 5 Minutes", "result": 0.7}, {"measurement": "log reduction at 2 ppm", "setting": "ATCC6538, 5 min, 2.0 ppm, read-out: Log Reduction at 5 Minutes", "result": 1.6}, {"measurement": "log reduction at 3 ppm", "setting": "ATCC6538, 5 min, 3.0 ppm, read-out: Log Reduction at 5 Minutes", "result": 2.6}, {"measurement": "log reduction at 4 ppm", "setting": "ATCC6538, 5 min, 4.0 ppm, aged 18 months, Exp. 1, 5.0 min, read-out: Log Reduction", "result": 2.7}, {"measurement": "log reduction at 4 ppm", "setting": "ATCC6538, 5 min, 4.0 ppm, aged 18 months, Exp. 2, 5.0 min, read-out: Log Reduction", "result": 2}, {"measurement": "log reduction at 4 ppm", "setting": "ATCC6538, 5 min, 4.0 ppm, aged 18 months, Exp. 3, 5.0 min, read-out: Log Reduction", "result": 2.8}, {"measurement": "log reduction at 4 ppm", "setting": "ATCC6538, 5 min, 4.0 ppm, read-out: Log Reduction at 5 Minutes", "result": 4.8}, {"measurement": "log reduction at 5 ppm", "setting": "ATCC6538, 5 min, 5.0 ppm, read-out: Log Reduction at 5 Minutes", "result": 4.8}, {"measurement": "log reduction at 4 ppm", "setting": "ATCC6538, 0.125 h", "result": 2.3}, {"measurement": "log reduction at 4 ppm", "setting": "ATCC6538, 0.125 h, 4.0 ppm, aged 18 months, Exp. 1, 7.5 min, read-out: Log Reduction", "result": 3.1}, {"measurement": "log reduction at 4 ppm", "setting": "ATCC6538, 0.125 h, 4.0 ppm, aged 18 months, Exp. 3, 7.5 min, read-out: Log Reduction", "result": 3.4}, {"measurement": "log reduction at 1 ppm", "setting": "ATCC6538, 10 min, 1.0 ppm, read-out: Log Reduction at 10 Minutes", "result": 1}, {"measurement": "log reduction at 2 ppm", "setting": "ATCC6538, 10 min, 2.0 ppm, read-out: Log Reduction at 10 Minutes", "result": 2.6}, {"measurement": "log reduction at 3 ppm", "setting": "ATCC6538, 10 min, 3.0 ppm, read-out: Log Reduction at 10 Minutes", "result": 4}, {"measurement": "log reduction at 4 ppm", "setting": "ATCC6538, 10 min, 4.0 ppm, aged 18 months, Exp. 1, 10.0 min, read-out: Log Reduction", "result": 3.5}, {"measurement": "log reduction at 4 ppm", "setting": "ATCC6538, 10 min, 4.0 ppm, aged 18 months, Exp. 2, 10.0 min, read-out: Log Reduction", "result": 2.7}, {"measurement": "log reduction at 4 ppm", "setting": "ATCC6538, 10 min, 4.0 ppm, aged 18 months, Exp. 3, 10.0 min, read-out: Log Reduction", "result": 3.9}, {"measurement": "log reduction at 4 ppm", "setting": "ATCC6538, 10 min, 4.0 ppm, read-out: Log Reduction at 10 Minutes", "result": 4.8}, {"measurement": "log reduction at 5 ppm", "setting": "ATCC6538, 10 min, 5.0 ppm, read-out: Log Reduction at 10 Minutes", "result": "> 4.8"}, {"measurement": "log reduction at 4 ppm", "setting": "ATCC6538, 0.25 h, 4.0 ppm, Ex. 6, aged 19 months at 25 °C, 15 min, read-out: Log Reduction", "result": 2.5}, {"measurement": "log reduction at 4 ppm", "setting": "ATCC6538, 0.25 h, 4.0 ppm, Ex. 7, different lot aged 18 months, 15 min, read-out: Log Reduction", "result": 3.7}, {"measurement": "log reduction at 4 ppm", "setting": "ATCC6538, 0.25 h, 4.0 ppm, Ex. 8, different batch aged 19 months at 25 °C, 15 min, read-out: Log Reduction", "result": 3.5}, {"measurement": "log reduction at 4 ppm", "setting": "ATCC6538, 0.5 h, 4.0 ppm, Ex. 6, aged 19 months at 25 °C, 30 min, read-out: Log Reduction", "result": 4.4}, {"measurement": "log reduction at 4 ppm", "setting": "ATCC6538, 0.5 h, 4.0 ppm, Ex. 7, different lot aged 18 months, 30 min, read-out: Log Reduction", "result": 4.7}, {"measurement": "log reduction at 4 ppm", "setting": "ATCC6538, 0.5 h, 4.0 ppm, Ex. 8, different batch aged 19 months at 25 °C, 30 min, read-out: Log Reduction", "result": "> 4.9"}, {"measurement": "log reduction at 4 ppm", "setting": "ATCC6538, 0.75 h, 4.0 ppm, Ex. 6, aged 19 months at 25 °C, 45 min, read-out: Log Reduction", "result": "> 4.9"}, {"measurement": "log reduction at 4 ppm", "setting": "ATCC6538, 0.75 h, 4.0 ppm, Ex. 7, different lot aged 18 months, 45 min, read-out: Log Reduction", "result": "> 4.8"}, {"measurement": "log reduction at 4 ppm", "setting": "ATCC6538, 0.75 h, 4.0 ppm, Ex. 8, different batch aged 19 months at 25 °C, 45 min, read-out: Log Reduction", "result": "> 4.9"}, {"measurement": "log reduction at 1 ppm", "setting": "ATCC6538, 1 h, 1 ppm, 1 hr, read-out: Log Reduction", "result": 1.6}, {"measurement": "log reduction at 2 ppm", "setting": "ATCC6538, 1 h, 2 ppm, 1 hr, read-out: Log Reduction", "result": 4.3}, {"measurement": "log reduction at 3 ppm", "setting": "ATCC6538, 1 h, 3 ppm, 1 hr, read-out: Log Reduction", "result": "> 4.8"}, {"measurement": "log reduction at 4 µg/mL", "setting": "ATCC6538, 1 h, 1 hr", "result": "> 4.9"}, {"measurement": "log reduction at 4 ppm", "setting": "ATCC6538, 1 h, 4 ppm, 1 hr, read-out: Log Reduction", "result": "> 4.8"}, {"measurement": "log reduction at 4 ppm", "setting": "ATCC6538, 1 h, 4.0 ppm, Ex. 6, aged 19 months at 25 °C, 60 min, read-out: Log Reduction", "result": "> 4.9"}, {"measurement": "log reduction at 4 ppm", "setting": "ATCC6538, 1 h, 4.0 ppm, Ex. 7, different lot aged 18 months, 60 min, read-out: Log Reduction", "result": "> 4.8"}, {"measurement": "log reduction at 4 ppm", "setting": "ATCC6538, 1 h, 4.0 ppm, Ex. 8, different batch aged 19 months at 25 °C, 60 min, read-out: Log Reduction", "result": "> 4.9"}, {"measurement": "log reduction at 5 ppm", "setting": "ATCC6538, 1 h, 5 ppm, 1 hr, read-out: Log Reduction", "result": "> 4.8"}, {"measurement": "log reduction at 4 µg/mL", "setting": "ATCC6538, 2 h, 2 hr", "result": "> 4.9"}, {"measurement": "log reduction at 4 µg/mL", "setting": "ATCC6538, 3 h, 3 hr", "result": "> 4.9"}, {"measurement": "log reduction at 4 µg/mL", "setting": "ATCC6538, 4 h, 4 hr", "result": "> 4.9"}]}]}
